Data: US10301295B2, “Herbicidal compounds” (Syngenta Participations AG, priority 2014, dated 2019)
Where two headings read alike, the source gives them in different places.

Key:
Format in all cases: in vivo
wheat = assay: Post-emergence herbicidal activity against cereal crops (wheat) +/- safener, crop selectivity; conditions: 100%=total damage to plant, 0%=no damage; for Post-emergence herbicidal activity against wheat (percentage phytotoxicity), +CQC: 250 g/ha, plus safener cloquintocet-mexyl (CQC) applied at 50 g/ha; for percent phytotoxicity (crop damage) to wheat at 250 g/ha: Triticum aestivum, 360 h, without safener, read-out: Post-emergence herbicidal activity against wheat (percentage phytotoxicity), Wheat - CQC
Outline: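 Test plants raised in pots in a glasshouse (24/18 °C warm or 20/16 °C cool species day/night, 16 h light, 65% humidity) and treated post-emergence about 12 days after sowing. Visual percentage phytotoxicity scored 15 days after application (0% = no damage, 100% = total damage).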

[1] = system: Alopecurus myosuroides (ALOMY); assay: Glasshouse assay for herbicidal activity, pre-/post-emergence (percentage phytotoxicity); conditions: Alopecurus myosuroides, Rate 250 g/ha, 100%=total damage, 0%=no damage
Outline: (§1)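 Pre- and post-emergence treatments were applied to potted plants at 1 and ~12 days after sowing respectively. Percentage phytotoxicity was judged visually 20 or 15 days later.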

Lolium perenne (LOLPE) = assay: as above; conditions: Lolium perenne, Rate 250 g/ha, 100%=total damage, 0%=no damage
Outline: as §1

Avena fatua (AVEFA) = assay: as above; conditions: Avena fatua, Rate 250 g/ha, 100%=total damage, 0%=no damage
Outline: as §1

[2] = system: Echinochloa crus-galli (ECHCG); assay: as above; conditions: Echinochloa crus-galli, Rate 250 g/ha, 100%=total damage, 0%=no damage
Outline: as §1

[3] = 360 h, post-emergence, visual assessment 15 DAA, read-out: Post-emergence herbicidal activity (percentage phytotoxicity), ALOMY POST
[4] = 480 h, pre-emergence, visual assessment 20 DAA, read-out: Pre-emergence herbicidal activity (percentage phytotoxicity), ALOMY PRE
[5] = post-emergence, 360 h, post-emergence, visual assessment 15 DAA, read-out: Post-emergence herbicidal activity (percentage phytotoxicity), LOLPE POST
[6] = pre-emergence, 480 h, pre-emergence, visual assessment 20 DAA, read-out: Pre-emergence herbicidal activity (percentage phytotoxicity), LOLPE PRE
[7] = post-emergence, 360 h, post-emergence, visual assessment 15 DAA, read-out: Post-emergence herbicidal activity (percentage phytotoxicity), AVEFA POST
[8] = pre-emergence, 480 h, pre-emergence, visual assessment 20 DAA, read-out: Pre-emergence herbicidal activity (percentage phytotoxicity), AVEFA PRE
[9] = post-emergence, 360 h, post-emergence, visual assessment 15 DAA, read-out: Post-emergence herbicidal activity (percentage phytotoxicity), ECHCG POST
[10] = pre-emergence, 480 h, pre-emergence, visual assessment 20 DAA, read-out: Pre-emergence herbicidal activity (percentage phytotoxicity), ECHCG PRE

SMILES | Post-emergence herbicidal activity against wheat (percentage phytotoxicity), +CQC (wheat) [%] | percent phytotoxicity (crop damage) to wheat at 250 g/ha (wheat) [%] | pest or weed control at 250 g/ha [1, 3] [%] | pest or weed control at 250 g/ha [1, 4] [%] | pest or weed control at 250 g/ha (Lolium perenne (LOLPE); [5]) [%] | pest or weed control at 250 g/ha (Lolium perenne (LOLPE); [6]) [%] | pest or weed control at 250 g/ha (Avena fatua (AVEFA); [7]) [%] | pest or weed control at 250 g/ha (Avena fatua (AVEFA); [8]) [%] | pest or weed control at 250 g/ha [2, 9] [%] | pest or weed control at 250 g/ha [2, 10] [%]
CC(=NOCc1ccccc1)C(=O)NCCC1CC(=O)C(c2c(C)cc(-n3cc(Cl)cn3)cc2C)C1=O (centres unmarked) [Compound A41] | 20 | 60 | 60 | 0 | 40 | 0 | 20 | 0 | 60 | 0
Cc1cc(C)c(C2C(=O)CC(CCNC(=S)NC(=O)c3ccccc3)C2=O)c(C)c1 (centres unmarked) [Compound A91] | 70 | 70 | 80 | 60 | 70 | 70 | 10 | 60 | 0 | 70
Cc1cc(-n2cc(Cl)cn2)cc(C)c1C1C(=O)CC(CCNC(=O)Nc2ccncn2)C1=O.Cl (centres unmarked) [Compound A33] | 10 | 40 | 40 | 60 | 30 | 0 | 40 | 40 | 80 | 70
Cc1cc(C)c(C2C(=O)CC(CCNS(=O)(=O)c3ccc(C(F)(F)F)cc3)C2=O)c(C)c1 (centres unmarked) [Compound A74] | 0 | 10 | 50 | 70 | 60 | 70 |  | 90 | 60 | 70
Cc1cc(-n2cc(Cl)cn2)cc(C)c1C1C(=O)CC(CCNC(=O)Nc2ncccn2)C1=O.Cl (centres unmarked) [Compound A32] | 10 | 60 | 80 | 70 | 60 | 60 | 100 | 50 | 100 | 80
Cc1cc(C)c(C2C(=O)CC(CCNS(=O)(=O)c3ccccc3Cl)C2=O)c(C)c1 (centres unmarked) [Compound A80] | 0 | 0 | 10 | 10 | 60 | 60 | 0 | 0 | 0 | 40
Cc1cc(C)c(C2C(=O)CC(CCNC(=O)NC(=O)c3ccccc3C(F)(F)F)C2=O)c(C)c1 (centres unmarked) [Compound A60] | 70 | 80 | 100 | 70 | 90 | 80 | 100 | 80 | 80 | 70
Cc1cc(C)c(C2C(=O)CC(CCNC(=O)NC(=O)c3ccccn3)C2=O)c(C)c1 (centres unmarked) [Compound A1, N-[2-[2,4-dioxo-3-(2,4,6-trimethylphenyl)cyclopentyl]ethylcarbamoyl]pyridine-2-carboxamide] | 20 | 80 | 90 | 80 | 90 | 100 | 90 | 60 | 80 | 100
Cc1cc(C)c(C2C(=O)CC(CCNC(=O)C3=NOC(C)(C)C3)C2=O)c(C)c1 (centres unmarked) [Compound A40, N-[2-[2,4-dioxo-3-(2,4,6-trimethylphenyl)cyclopentyl]ethyl]-5,5-dimethyl-4H-isoxazole-3-carboxamide] | 80 | 90 | 100 | 90 | 90 | 100 | 100 | 100 | 100 | 100
CC(=NOCc1ccccc1)C(=O)NCCC1CC(=O)C(c2c(C)cc(C)cc2C)C1=O (centres unmarked) [Compound A44] | 10 | 30 | 0 | 0 | 0 | 10 | 0 | 0 | 70 | 0
Cc1cc(C)c(C2C(=O)CC(CCNC(=O)NC(=O)c3ccc(OC(F)(F)F)cc3)C2=O)c(C)c1 (centres unmarked) [Compound A71] | 20 | 80 | 20 | 30 | 80 | 40 | 50 | 20 | 80 | 0
Cc1cc(C)c(C2C(=O)CC(CCNS(=O)(=O)c3ccc(Cl)cc3)C2=O)c(C)c1 (centres unmarked) [Compound A81] | 0 | 0 | 60 | 60 | 60 | 70 | 70 | 70 | 60 | 70
Cc1ccc(C(=O)NC(=O)NCCC2CC(=O)C(c3c(C)cc(C)cc3C)C2=O)cc1 (centres unmarked) [Compound A55] | 0 | 30 | 70 | 60 | 90 | 70 | 0 | 10 | 80 | 80
CONC(=O)NCCC1CC(=O)C(c2c(C)cc(C)cc2C)C1=O (centres unmarked) [Compound A18] | 0 | 60 | 80 | 60 | 80 | 70 | 80 | 50 | 90 | 60
Cc1cc(C)c(C2C(=O)CC(CCNC(=O)Nc3ccccn3)C2=O)c(C)c1.Cl (centres unmarked) [Compound A3] | 60 | 90 | 100 | 100 | 100 | 90 | 90 | 80 | 100 | 100
